# Laboratory results reported in PMC7180638, “Synthesis of Pyrrolidine Monocyclic Analogues of Pochonicine and Its Stereoisomers: Pursuit of Simplified Structures and Potent β-N-Acetylhexosaminidase Inhibition” (Molecules, 2020).
# Structures can show the parent of a compound that is named as a salt. Where two headings read alike, the source gives them in different places.
# Tests used:
# Assay type in all cases: biochemical
# α-Glucosidase (Yeast) = α-Glucosidase (Yeast) (Saccharomyces cerevisiae, UniProt P53341); assay: α-Glucosidase (yeast) inhibition
# Chain of α-Glucosidase (Yeast) (P53341 whole entry): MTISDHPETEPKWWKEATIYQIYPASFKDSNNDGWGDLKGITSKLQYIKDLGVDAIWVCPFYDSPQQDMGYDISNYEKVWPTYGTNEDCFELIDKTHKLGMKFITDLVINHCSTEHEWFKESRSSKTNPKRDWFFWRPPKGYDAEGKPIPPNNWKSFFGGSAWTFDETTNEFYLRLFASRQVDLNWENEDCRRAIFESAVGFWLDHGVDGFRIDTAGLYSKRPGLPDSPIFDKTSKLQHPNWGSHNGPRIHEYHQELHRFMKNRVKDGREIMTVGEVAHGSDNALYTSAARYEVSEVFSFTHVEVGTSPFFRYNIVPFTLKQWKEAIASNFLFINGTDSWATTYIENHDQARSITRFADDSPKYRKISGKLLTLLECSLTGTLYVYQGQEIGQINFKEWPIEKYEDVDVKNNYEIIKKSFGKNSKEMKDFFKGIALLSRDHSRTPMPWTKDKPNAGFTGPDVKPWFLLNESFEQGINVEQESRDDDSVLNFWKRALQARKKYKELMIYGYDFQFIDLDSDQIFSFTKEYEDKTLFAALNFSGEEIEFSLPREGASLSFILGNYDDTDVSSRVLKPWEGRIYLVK
# Method: (§1) With rat intestinal maltase as an exception, other enzymes were purchased from Sigma-Aldrich Chemical Co. (St. Louis, MO, USA). Brush border membranes prepared from rat small intestine according to the method of Kessler et al. were assayed at pH 6.8 for rat intestinal maltase using maltose. The released D-glucose was determined colorimetrically using the Glucose CII-test Wako (Wako Pure Chemical Ind.; Osaka, Japan). Other glycosidase activities were determined using an appropriate p-nitrophenyl glycoside as substrate in a buffer solution at the optimal pH value of each enzyme. The reaction was stopped by adding 400 mM Na2CO3. The released p-nitrophenol was measured spectrometrically at 400 nm.
# α-Glucosidase (Rice) = biological target: T1, α-Glucosidase (Rice) (Oryza sativa subsp. japonica, UniProt Q653V7); assay: α-Glucosidase (rice) inhibition
# T1 construct: purchased Sigma-Aldrich Chemical Co
# T1 sequence (Q653V7 34-885): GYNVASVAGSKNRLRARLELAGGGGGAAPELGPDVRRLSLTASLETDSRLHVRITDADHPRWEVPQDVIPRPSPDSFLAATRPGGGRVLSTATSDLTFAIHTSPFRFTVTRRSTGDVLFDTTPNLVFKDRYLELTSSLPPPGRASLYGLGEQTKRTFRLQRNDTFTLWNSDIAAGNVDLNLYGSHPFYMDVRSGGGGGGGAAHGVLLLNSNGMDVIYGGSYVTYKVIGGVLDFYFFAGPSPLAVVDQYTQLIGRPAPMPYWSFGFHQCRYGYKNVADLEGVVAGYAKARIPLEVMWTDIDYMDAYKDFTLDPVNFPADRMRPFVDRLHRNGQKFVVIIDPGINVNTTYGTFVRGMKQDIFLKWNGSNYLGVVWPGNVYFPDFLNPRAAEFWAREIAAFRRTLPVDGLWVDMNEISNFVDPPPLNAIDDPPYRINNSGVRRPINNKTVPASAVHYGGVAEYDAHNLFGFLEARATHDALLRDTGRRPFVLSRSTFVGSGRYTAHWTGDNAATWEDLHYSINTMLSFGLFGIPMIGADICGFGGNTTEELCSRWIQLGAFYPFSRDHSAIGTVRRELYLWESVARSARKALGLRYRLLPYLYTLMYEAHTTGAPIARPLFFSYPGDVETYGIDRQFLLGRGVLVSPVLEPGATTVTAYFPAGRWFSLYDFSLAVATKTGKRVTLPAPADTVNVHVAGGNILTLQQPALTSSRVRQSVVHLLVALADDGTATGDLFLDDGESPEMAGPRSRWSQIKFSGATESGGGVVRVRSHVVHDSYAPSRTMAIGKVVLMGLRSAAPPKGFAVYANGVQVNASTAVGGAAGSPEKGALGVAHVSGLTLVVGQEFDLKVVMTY
# Method: as §1
# [1] = biological target: β-Glucosidase (Bovine liver); assay: β-Glucosidase (bovine liver) inhibition
# Method: as §1
# [2] = biological target: T2, α-Galactosidase (Coffee beans) (Coffea arabica, UniProt Q42656); assay: α-Galactosidase (coffee beans) inhibition
# T2 construct: purchased Sigma-Aldrich Chemical Co
# T2 sequence (Q42656 16-378): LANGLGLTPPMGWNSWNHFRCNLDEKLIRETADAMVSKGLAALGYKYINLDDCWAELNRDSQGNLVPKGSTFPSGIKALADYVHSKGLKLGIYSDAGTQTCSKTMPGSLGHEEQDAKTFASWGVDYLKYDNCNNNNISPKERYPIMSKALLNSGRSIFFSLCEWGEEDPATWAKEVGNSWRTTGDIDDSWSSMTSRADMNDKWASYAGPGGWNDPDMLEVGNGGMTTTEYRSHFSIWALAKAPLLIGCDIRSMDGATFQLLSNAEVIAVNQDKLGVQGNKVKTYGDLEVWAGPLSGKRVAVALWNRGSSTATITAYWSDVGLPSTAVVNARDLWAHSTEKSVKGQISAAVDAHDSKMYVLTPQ
# Method: as §1
# β-Mannosidase (Snail) = assay: β-Mannosidase (snail) inhibition
# Method: as §1
# [3] = biological target: T3, α-L-Fucosidase (Bovine kidney) (Bos taurus, UniProt Q2KIM0); assay: α-L-Fucosidase (bovine kidney) inhibition
# T3 construct: purchased Sigma-Aldrich Chemical Co; host or cells: bovine kidney
# T3 sequence (Q2KIM0 23-468): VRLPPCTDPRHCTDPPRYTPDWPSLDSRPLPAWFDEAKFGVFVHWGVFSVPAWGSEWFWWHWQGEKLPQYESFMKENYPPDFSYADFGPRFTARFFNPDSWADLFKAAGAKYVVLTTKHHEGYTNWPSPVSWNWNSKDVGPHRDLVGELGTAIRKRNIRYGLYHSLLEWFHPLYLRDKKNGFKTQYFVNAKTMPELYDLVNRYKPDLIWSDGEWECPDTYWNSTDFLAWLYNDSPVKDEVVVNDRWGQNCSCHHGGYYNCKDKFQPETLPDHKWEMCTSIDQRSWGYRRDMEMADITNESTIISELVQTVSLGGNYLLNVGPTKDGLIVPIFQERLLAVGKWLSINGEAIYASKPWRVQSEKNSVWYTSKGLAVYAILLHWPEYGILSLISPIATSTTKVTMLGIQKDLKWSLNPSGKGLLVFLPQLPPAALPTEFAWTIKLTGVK
# Method: as §1
# [4] = biological target: T4, Amyloglucosidase (A. niger) (Aspergillus niger, UniProt P69328); assay: Amyloglucosidase (A. niger) inhibition
# T4 construct: purchased Sigma-Aldrich Chemical Co
# T4 sequence (P69328 25-640): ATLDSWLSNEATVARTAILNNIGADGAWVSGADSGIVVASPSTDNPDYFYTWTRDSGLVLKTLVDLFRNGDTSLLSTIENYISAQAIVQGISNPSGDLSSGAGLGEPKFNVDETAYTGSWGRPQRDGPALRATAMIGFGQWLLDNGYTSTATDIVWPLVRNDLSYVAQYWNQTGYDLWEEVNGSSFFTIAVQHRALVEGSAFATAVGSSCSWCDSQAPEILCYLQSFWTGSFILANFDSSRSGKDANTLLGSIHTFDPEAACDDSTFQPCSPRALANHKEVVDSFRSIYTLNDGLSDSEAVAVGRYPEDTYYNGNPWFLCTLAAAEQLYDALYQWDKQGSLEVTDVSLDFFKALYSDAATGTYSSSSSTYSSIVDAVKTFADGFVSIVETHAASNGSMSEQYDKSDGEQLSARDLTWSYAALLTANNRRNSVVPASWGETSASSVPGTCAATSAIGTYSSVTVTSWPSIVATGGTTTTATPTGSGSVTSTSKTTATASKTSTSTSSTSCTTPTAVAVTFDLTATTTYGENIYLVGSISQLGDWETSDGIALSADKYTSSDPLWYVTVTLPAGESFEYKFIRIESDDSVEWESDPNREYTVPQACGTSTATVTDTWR
# Method: as §1
# [5] = biological target: α-L-Rhamnosidase (P. decumbens); assay: α-L-Rhamnosidase (P. decumbens) inhibition
# Method: as §1
# [6] = biological target: T5, β-Glucuronidase (E. coli) (Escherichia coli, UniProt P05804); assay: β-Glucuronidase (E. coli) inhibition
# T5 construct: purchased Sigma-Aldrich Chemical Co
# T5 sequence (P05804 whole entry): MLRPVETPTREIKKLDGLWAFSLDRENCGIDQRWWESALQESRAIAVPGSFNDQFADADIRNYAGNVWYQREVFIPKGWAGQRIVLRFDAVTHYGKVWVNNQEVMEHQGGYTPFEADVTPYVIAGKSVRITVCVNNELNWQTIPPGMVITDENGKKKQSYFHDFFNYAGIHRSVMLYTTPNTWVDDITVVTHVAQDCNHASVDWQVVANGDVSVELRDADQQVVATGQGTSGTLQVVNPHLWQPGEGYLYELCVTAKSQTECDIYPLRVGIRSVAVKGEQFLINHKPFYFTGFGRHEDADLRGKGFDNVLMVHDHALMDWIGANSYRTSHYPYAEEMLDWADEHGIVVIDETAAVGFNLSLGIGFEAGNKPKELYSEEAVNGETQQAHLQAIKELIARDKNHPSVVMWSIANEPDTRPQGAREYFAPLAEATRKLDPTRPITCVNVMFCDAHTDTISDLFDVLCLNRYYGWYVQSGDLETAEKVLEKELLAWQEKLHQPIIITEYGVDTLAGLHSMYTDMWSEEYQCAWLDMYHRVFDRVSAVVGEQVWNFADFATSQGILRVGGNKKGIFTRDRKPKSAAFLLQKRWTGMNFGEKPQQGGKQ
# Method: as §1
# [7] = biological target: β-N-Acetylhexosaminidase (HL60); assay: β-N-Acetylhexosaminidase (HL60) inhibition; conditions: for IC50: β-N-Acetylhexosaminidase (β-GlcNAcase); for Inhibition % at 1000 μM: β-N-Acetylhexosaminidase
# Method: as §1
# [8] = biological target: β-N-Acetylhexosaminidase (Jack bean); assay: β-N-Acetylhexosaminidase (Jack bean) inhibition; conditions: β-N-Acetylhexosaminidase (β-GlcNAcase), read-out: IC50
# Method: as §1
# [9] = biological target: T6, α-N-Acetylgalactosaminidase (Chicken liver) (Gallus gallus, UniProt Q90744); assay: α-N-Acetylgalactosaminidase (chicken liver) inhibition
# T6 construct: purchased Sigma-Aldrich Chemical Co; host or cells: chicken liver
# T6 sequence (Q90744 1-405): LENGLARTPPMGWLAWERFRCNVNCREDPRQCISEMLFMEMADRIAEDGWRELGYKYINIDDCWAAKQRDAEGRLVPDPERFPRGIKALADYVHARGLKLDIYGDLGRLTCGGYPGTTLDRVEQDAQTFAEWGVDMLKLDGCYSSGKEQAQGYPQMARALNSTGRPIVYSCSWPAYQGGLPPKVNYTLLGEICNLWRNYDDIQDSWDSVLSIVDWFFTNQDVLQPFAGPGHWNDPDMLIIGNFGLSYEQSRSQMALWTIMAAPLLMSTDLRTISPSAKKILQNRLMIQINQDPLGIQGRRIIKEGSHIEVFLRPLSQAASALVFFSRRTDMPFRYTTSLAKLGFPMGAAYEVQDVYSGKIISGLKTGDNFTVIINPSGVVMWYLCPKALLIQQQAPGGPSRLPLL
# Method: as §1
# [10] = biological target: T7, β-Galactosidase (Bovine liver) (Bos taurus, UniProt F1MNT6); assay: β-Galactosidase (bovine liver) inhibition
# T7 sequence (F1MNT6 1-469): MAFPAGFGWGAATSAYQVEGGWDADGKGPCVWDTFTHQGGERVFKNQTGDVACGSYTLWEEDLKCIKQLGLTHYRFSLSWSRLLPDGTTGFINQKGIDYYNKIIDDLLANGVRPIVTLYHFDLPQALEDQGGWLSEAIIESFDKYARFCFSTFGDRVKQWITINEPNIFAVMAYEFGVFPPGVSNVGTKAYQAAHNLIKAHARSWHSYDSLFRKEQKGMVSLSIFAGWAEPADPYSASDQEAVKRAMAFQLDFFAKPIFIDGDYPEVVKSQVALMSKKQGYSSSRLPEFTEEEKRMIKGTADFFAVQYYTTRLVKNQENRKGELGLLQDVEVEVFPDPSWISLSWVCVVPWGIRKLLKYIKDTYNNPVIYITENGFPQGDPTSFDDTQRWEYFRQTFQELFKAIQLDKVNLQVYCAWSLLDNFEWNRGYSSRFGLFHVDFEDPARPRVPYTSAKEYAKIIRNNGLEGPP
# Method: as §1
# [11] = 1000 μM, read-out: Inhibition % at 1000 μM
# [12] = read-out: Inhibition % at 1000 μM
# [13] = α-Glucosidase, Yeast, read-out: IC50
SMILES,IC50 [1],Inhibition % at 1000 μM [1] [%],"inhibition at 1000 µM [2, 11] [%]",inhibition at 1000 µM ([2]; read-out: IC50) [%],"inhibition at 1000 µM [3, 11] [%]",inhibition at 1000 µM ([3]; read-out: IC50) [%],"inhibition at 1000 µM [4, 11] [%]",inhibition at 1000 µM ([4]; read-out: IC50) [%],IC50 [5],Inhibition % at 1000 μM [5] [%],"inhibition at 1000 µM [6, 11] [%]",inhibition at 1000 µM ([6]; read-out: IC50) [%],IC50 [8] [µM],"inhibition at 1000 µM [9, 11] [%]",inhibition at 1000 µM ([9]; read-out: IC50) [%],inhibition at 1000 µM (α-Glucosidase (Yeast); [12]) [%],inhibition at 1000 µM (α-Glucosidase (Yeast); [13]) [%],"inhibition at 1000 µM [10, 11] [%]",inhibition at 1000 µM ([10]; read-out: IC50) [%],IC50 (β-Mannosidase (Snail)),further results
"CC(=O)NC[C@H]1N[C@H](CO)[C@@H](O)[C@@H]1O [4·HCl, 1-N-acetylamino-2,5-imino-1,2,5-trideoxy-D-mannitol hydrochloride]",NI (No Inhibition (less than 50% at 1000 μM)),33.8,1.1,< 50,1.5,< 50,40.6,< 50,NI (No Inhibition (less than 50% at 1000 μM)),6.5,0.6,< 50,0.21,3.3,< 50,–,–,–,–,–,"IC50 (α-Glucosidase (Yeast); α-Glucosidase, Yeast): 450 µM; IC50 (α-Glucosidase (Rice)): 1000 µM; IC50 (β-Mannosidase (Snail); read-out: IC50): 296 µM; IC50 ([7]; read-out: IC50): 34 µM"
"CC(=O)NC[C@@H]1N[C@@H](CO)[C@H](O)[C@H]1O [A-10, 1-N-acetylamino-2,5-imino-1,2,5-trideoxy-L-mannitol hydrochloride]",NI (No Inhibition (less than 50% at 1000 μM)),2.0,0,< 50,0,< 50,5.5,< 50,NI (No Inhibition (less than 50% at 1000 μM)),10.1,0,< 50,202,0,< 50,0.5,< 50,1.6,< 50,NI (No Inhibition (less than 50% at 1000 μM)),IC50 (α-Glucosidase (Rice)): 568 µM; Inhibition % at 1000 μM (β-Mannosidase (Snail)): 0%; IC50 [7]: NI (No Inhibition (less than 50% at 1000 μM)); Inhibition % at 1000 μM [7]: 12.7%
"CC(=O)NC[C@@H]1N[C@@H](CO)[C@@H](O)[C@H]1O [C-10, 1-N-acetylamino-2,5-imino-1,2,5-trideoxy-L-altritol hydrochloride]",NI (No Inhibition (less than 50% at 1000 μM)),1.0,0.36,< 50,4.9,< 50,1.9,< 50,NI (No Inhibition (less than 50% at 1000 μM)),3.6,0.3,< 50,129,6.1,< 50,0,< 50,1.3,< 50,NI (No Inhibition (less than 50% at 1000 μM)),inhibition at 1000 µM (α-Glucosidase (Rice); [11]): 18.2%; inhibition at 1000 µM (α-Glucosidase (Rice); read-out: IC50): < 50%; Inhibition % at 1000 μM (β-Mannosidase (Snail)): 0%; IC50 [7]: NI (No Inhibition (less than 50% at 1000 μM)); Inhibition % at 1000 μM [7]: 3.9%
"CC(=O)NC[C@H]1N[C@H](CO)[C@H](O)[C@@H]1O [D-10, 1-N-acetylamino-2,5-imino-1,2,5-trideoxy-D-altritol hydrochloride]",NI (2.4%) (No Inhibition (less than 50% at 1000 μM)),–,–,–,1.7,< 50,3.8,< 50,NI (No Inhibition (less than 50% at 1000 μM)),8.3,0,< 50,0.12,–,–,0,< 50,3.3,< 50,NI (No Inhibition (less than 50% at 1000 μM)),inhibition at 1000 µM (α-Glucosidase (Rice); [11]): 26.1%; inhibition at 1000 µM (α-Glucosidase (Rice); read-out: IC50): < 50%; IC50 [2]: 380 µM; Inhibition % at 1000 μM (β-Mannosidase (Snail)): 0%; IC50 ([7]; read-out: IC50): 10 µM; IC50 [9]: 65.3 µM
"CC(=O)NC[C@H]1N[C@@H](CO)[C@@H](O)[C@@H]1O [E-10a, 1-N-acetylamino-2,5-imino-1,2,5-trideoxy-D-glucitol hydrochloride]",NI (No Inhibition (less than 50% at 1000 μM)),4.1,0.36,< 50,41.7,< 50,4,< 50,NI (No Inhibition (less than 50% at 1000 μM)),11.8,0,< 50,10,1.4,< 50,0,< 50,4.9,< 50,NI (No Inhibition (less than 50% at 1000 μM)),inhibition at 1000 µM (α-Glucosidase (Rice); [11]): 15.9%; inhibition at 1000 µM (α-Glucosidase (Rice); read-out: IC50): < 50%; Inhibition % at 1000 μM (β-Mannosidase (Snail)): 25.8%; IC50 ([7]; read-out: IC50): 591 µM
"CC(=O)NC[C@@H]1N[C@@H](CO)[C@@H](O)[C@@H]1O [E-10b, 1-N-acetylamino-2,5-imino-1,2,5-trideoxy-L-iditol hydrochloride]",NI (No Inhibition (less than 50% at 1000 μM)),0,0,< 50,20.5,< 50,6.4,< 50,NI (No Inhibition (less than 50% at 1000 μM)),30.8,0,< 50,115,0.5,< 50,0,< 50,3.9,< 50,NI (No Inhibition (less than 50% at 1000 μM)),inhibition at 1000 µM (α-Glucosidase (Rice); [11]): 0%; inhibition at 1000 µM (α-Glucosidase (Rice); read-out: IC50): < 50%; Inhibition % at 1000 μM (β-Mannosidase (Snail)): 0%; IC50 [7]: NI (No Inhibition (less than 50% at 1000 μM)); Inhibition % at 1000 μM [7]: 4.5%
